From patent US11638763B2, “Nanoallergens and uses thereof” (University of Notre Dame du Lac, priority 2015, dated 2023)
Entries after “also recorded” stand apart in the source; their conditions may differ. Square brackets hold non-standard residues; d marks the D form. Ends that are not written are not given here. Hyp = O=C(O)[C@@H]1C[C@@H](O)CN1

Experiments:
[1] = tested on: RBL-2H3 cells; assay: Degranulation assay, RBL-2H3 cells primed with monoclonal IgE; assay type: cell-based, rat; details: valency of 18, FIG. 19
Protocol: Cell Culture. RBL-2H3 cells were cultured in Minimum Essential Media (Gibco) with 10% fetal bovine serum (Gemini BioProducts) as previously described.^25
Degranulation Assays. RBL degranulation assays were performed as previously described, expect using nanoallergens as the allergen.^23 Additionally, RBL cells were incubated with 1 μg/mL of total IgE overnight prior to nanoallergen incubation using 75% IgE^cyclinA as an orthogonal IgE (i.e. an IgE specific to a molecule, cyclinA, which is not used in this study) to simulate physiological conditions for all degranulation assays.^21

[2] = molecular target: IgE^dansyl; assay: Fluorescence quenching binding of HBI molecules to IgE^dansyl
Protocol: Fluorescence Quenching. In order to determine binding of HBI molecules to respective antibodies, we observed the quenching of tryptophan resides using a method previously described. Briefly, either IgE^dansyl or IgG^Penicillin was diluted into a non-binding 96-well dish at 40 nM in PBS. Then, HBI molecules which contained either a dansyl or DNP group were titrated into well and fluorescence (Ex. 280 nm, Em. 335) was observed using a SpectraMax M2 spectrophotometer. PBS and free tryptamine diluted to similar initial fluorescence values were used as controls to account for HBI fluorescence and non-specific quenching respectively.

[3] = molecular target: IgE^dansyl; assay: Fluorescence quenching titration of dansyl conjugates; assay type: binding; details: monovalent affinity of hapten-amino acid conjugate
Protocol: Fluorescence Quenching Assay. The binding constants for dansyl conjugates were determined as previously described.^27 Briefly, Dansyl conjugates were titrated into wells containing 15 nM IgE^dansyl and then the flourscence read at various concentration points (Ex=280 nm, Em=335).

[4] = tested on: RBL-SX38 cells; assay: Degranulation assay, RBL-SX38 cells primed with peanut allergy patient sera; assay type: cell-based, rat; details: for degranulation response: 2% epitope-lipid nanoallergens, single patient serum (FIG. 4); for Immuno-reactivity: epitope-lipid loaded in nanoallergens, patient sera; for effect on Ara h 2 triggered degranulation: 100 μM free epitope 2, FIG. 13
Protocol: Cell Culture. RBL-SX38 cells were a generous gift from Dr. Jean-Pierre Kinet from Harvard University. RBL-SX38 cells were cultured in Minimum Essential Media (Gibco) with 10% fetal bovine serum (Gemini BioProducts, Sacramento Calif.) and 1.2 mg/mL of G418 salt (Sigma) as previously described.
Degranulation Assays. Degranulation assays were performed as previously described using nanoallergens as the allergen. RBL cells were plated into 96-well dishes for 24 hrs and then incubated with 10% of human sera in cell culture media for an additional 24 hrs prior to the degranulation assay.
Using the mast-like rat basophil leukemia SX38 (RBL) cell line that has been transfected to express the human FcεRI on their surface, applicants can use peanut reactive patient sera in applicants' cellular degranulation assays (FIG. 8). The RBL cells become sensitized when IgEs from the patient sera (including those reactive to peanuts) tightly bind to the high affinity FcεRI. After sensitization, applicants added varying concentrations of either Ara h 2 or nanoallergens with 2% of epitope 2 lipid loaded into the liposome.

[5] = tested on: Bruton's tyrosine kinase (BTK); assay: Western blot of BTK phosphorylation in stimulated RBL-SX38 cells; assay type: cell-based, rat; details: FIG. 3
Protocol: Western Blot. Stimulated RBL cells were analyzed for intracellular activity with a Western blotting technique previously described. RBL-SX38 cells were plated at approximately 0.5×10^6 cells per mL into a 3 mL dish for 24 hours. Cells were then incubated in 10% patient serum in cell culture media for 24 hours. Cells were then washed with Tyrodes buffer and incubated with Tyrodes from 30 minutes at 37° C. Ara h 2 or nanoallergens were then added at varying concentrations and incubated at 37° C. for 3 minutes. Cells were washed with ice cold PBS, then incubated in RIPA with phosphatase inhibitor lysis buffer, scrapped and sonicated for a minute intervals over the course of 30 minutes on ice. Lysates were then spun down at 15000 RPM for 10 minutes and their protein concentration determined by Bradford Assay. Laemmli buffer and PBS were added to all lysates so that their protein concentration was 0.5 mg/mL or would be 0.5 mg/mL prior to immunoprecipitation. Samples were boiled for 5 minutes; centrifuged and 20 uL of each was added to a 10% SDS-PAGE gel. Samples ran on the gel for 1 hr, were transferred to nitrocellulose paper for 1.5 hrs, and blocked with 5% BSA in TBS-T for 1 hr. […] The membranes were washed, and incubated in with Clarity™ Western ECL Blotting Substrate (Bio-Rad) for 5 minutes. Bands were exposed onto Kodak Chemiluminescence Film for times ranging from 1-30 minutes.

[6] = tested on: patient IgEs; assay: ELISA binding assay with patient sera; set-up: species or system human; details: for EC50: patient serum 0, plate coated with anti-IgE IgG
Protocol: ELISA Assay. A high binding 96-well plate was incubated with anti-Human IgE in Carbonate-Bicarbonate buffer (Sigma) at a concentration of 3 nM for 16 hours at 4° C. Plate was washed with washing buffer (PBS with 0.5% tween 20) and then blocked with blocking buffer (5% BSA in PBS with 0.1% tween 20) for 1 hr at room temperature. Plate was washed with automatic plate washer (AquaMax 2000), then varying concentrations of either Ara h 2-Biotin (Indoors Biotechnologies) or FITC-peptide 2 conjugate in blocking buffer for 1 hour. Plate was washed again and then either streptavidin-HRP (1:5000 dilution) or anti-FITC HRP IgG (1:5000 dilution) was added in blocking buffer. After washing, Amplex Red substrate was added (Invitrogen) and plate fluorescence read at 5 minute intervals according to manufacturers instructions.

[7] = various sera from highly allergic individuals; cited from earlier work
[8] = all four patient sera, 2% loaded, FIG. 6

## DNP-BSA: DNP groups covalently bonded to bovine serum albumin, valency of 18, used as a control
[1]
  EC50: 26 ± 9 nM

## Dansyl
[2]
  Kd: 29.9 ± 10 nM
[3]
  Kd: 147 nM

## Epitope-Lipid 1: Ara h 2 epitope NLRPCEQHLMQKIQRD (38-53) lipid conjugate, tested loaded at 2% in nanoallergens (also: lipid conjugate, site not given here)
[4]
  degranulation response: little or no degranulation response
  Immuno-reactivity: None
[4]; Serum 1, 2 and 3, in contrast to Serum 0
  degranulation response in patient sera: moderate responses

## Epitope-Lipid 2: Ara h 2 epitope ERDPYSP^OHSQDPYSP^OHS (79-91) lipid conjugate, tested loaded at 2% in nanoallergens (ERDPYS[Hyp]SQDPYS[Hyp]S; also: lipid conjugate, site not given here)
[5]
  BTK phosphorylation: increase in phosphorylation BTK
[4]; 2% epitope 2 lipid, FIG. 2C
  fold lower concentration than Ara h 2 to stimulate degranulation: approximately 10 fold
[4]
  degranulation response: simulate degranulation
  Immuno-reactivity: High
[4]; 2% loaded nanoallergens, with and without hydroxylations, FIG. 10
  effect of proline hydroxylations on degranulation response: increase in response when proline hydroxylations are present
[4]; single patient serum, FIG. 4
  fold lower concentration than the other immune-reactive epitope nanoallergens to stimulate degranulation: approximately 100 fold

## Epitope-Lipid 3: Ara h 2 epitope SDRLQGRQQ (114-123) lipid conjugate, tested loaded at 2% in nanoallergens (also: lipid conjugate, site not given here)
[6]
  binding through ELISA: did not demonstrate any binding
[4]; listed as epitope 3
  degranulation response: simulate degranulation; also recorded: could trigger degranulation
[4]
  Immuno-reactivity: Mild

## Epitope-Lipid 4: Ara h 2 epitope RRCQSQLER (28-35) lipid conjugate, tested loaded at 2% in nanoallergens (also: lipid conjugate, site not given here)
[4]; listed as epitope 4
  degranulation response: simulate degranulation; also recorded: little or no degranulation response
[4]; [8]
  degranulation response in patient sera: no response
[4]
  Immuno-reactivity: None

## Epitope-Lipid 5: Ara h 2 epitope HASARQQWEL (15-24) lipid conjugate, tested loaded at 2% in nanoallergens (also: lipid conjugate, site not given here)
[6]
  binding through ELISA: did not demonstrate any binding
[4]; listed as epitope 5
  degranulation response: simulate degranulation; also recorded: could trigger degranulation
[4]; [8]
  degranulation response in patient sera: moderate responses
[4]
  Immuno-reactivity: Mild

## Epitope-Lipid 6: Ara h 2 epitope RQQEQQFKRELRNLPQQ (120-136) lipid conjugate, tested loaded at 2% in nanoallergens (also: lipid conjugate, site not given here)
[4]
  degranulation response: simulate degranulation
  Immuno-reactivity: Mild
[4]; [8]
  degranulation response in patient sera: moderate responses

## Epitope-Lipid 7: Ara h 2 epitope PQRCDLE (142-148) lipid conjugate, tested loaded at 2% in nanoallergens (also: lipid conjugate, site not given here)
[4]
  degranulation response: simulate degranulation
  Immuno-reactivity: Low
[4]; [8]
  degranulation response in patient sera: low responses

## Epitope-Lipid 8: Ara h 2 epitope CDLEVESGGRDRY (145-157) lipid conjugate, tested loaded at 2% in nanoallergens (also: lipid conjugate, site not given here)
[4]
  degranulation response: little or no degranulation response
  Immuno-reactivity: None
[4]; all four patient sera, 2% loaded, FIG. 6, listed as epitope 8
  degranulation response in patient sera: no response; also recorded: did not demonstrate any degranulation

## Pep2: FITC-tagged epitope 2 peptide used in ELISA (ERDPYS[Hyp]SQDPYS[Hyp]S; also: FITC-tagged, site not given here)
[6]
  EC50: 465 ± 200 nM

## free epitope 2 peptide: free Ara h 2 epitope 2 peptide, used at 100 μM (ERDPYS[Hyp]SQDPYS[Hyp]S)
[4]
  effect on Ara h 2 triggered degranulation: only a very small decrease in degranulation response
[4]; listed as free epitope peptide 2
  effect on Ara h 2 triggered degranulation: did not prevent Ara h 2 protein from triggering degranulation
[4]; 100 μM free peptide 2, FIG. 9
  effect on nanoallergen degranulation response: can be prevented

B1: Ara h2: major peanut allergen, 17.5 kDa 2 S albumin seed storage protein (protein)
chain: RQQWELQGDRRCQSQLERANLRPCEQHLMQKIQRDEDSYGRDPYSPSQDPYSPSQDPDRRDPYSPSPYDRRGAGSSQHQERCCNELNEFENNQRCMCEALQQIMENQSDRLQGRQQEQQFKRELRNLPQQCGLRAPQRCDLEVESGGRDRY
[6]
  EC50: 40 ± 27 nM
[7]
  EC50 values in cellular studies: low picomolar range
